Test: Antagonist activity at CCR2 in human peripheral blood mononuclear cells assessed as reduction in MCP1-induced chemotaxis measured after 30 mins by calcein-AM dye based fluorescence assay

CN[C@@H]1CC[C@H](N2CC[C@H](Nc3ncnc4ccc(C(F)(F)F)cc34)C2=O)[C@H](NC(C)=O)C1 showed an IC50 of 1.7 nM.

From BindingDB's records for doi:10.1021/acsmedchemlett.1c00082 (Bristol Myers Squibb, 2021)
